Results reported in the kinase profiling compilation of Christmann-Franck et al. (2016).

Tests used:
Experiment in all cases: KINOMEscan competition binding
Settings in all cases: compound 10.0 µM
CDC2L2 (human) = CDC2L2 (human) (UniProt Q9UQ88)
PDPK1 (human) = PDPK1 (human) (UniProt O15530)
CLK4 (human) = CLK4 (human) (UniProt Q9HAZ1)
EPHA6 (human) = EPHA6 (human) (UniProt Q9UF33)
CDK2 (human) = CDK2 (human) (UniProt P24941)
RPS6KA1 KD1 (human) = RPS6KA1 KD1 (human) (UniProt Q15418)
STK24 (human) = STK24 (human) (UniProt Q9Y6E0)
Sequence of STK24 (human) (Q9Y6E0 whole entry, looked up): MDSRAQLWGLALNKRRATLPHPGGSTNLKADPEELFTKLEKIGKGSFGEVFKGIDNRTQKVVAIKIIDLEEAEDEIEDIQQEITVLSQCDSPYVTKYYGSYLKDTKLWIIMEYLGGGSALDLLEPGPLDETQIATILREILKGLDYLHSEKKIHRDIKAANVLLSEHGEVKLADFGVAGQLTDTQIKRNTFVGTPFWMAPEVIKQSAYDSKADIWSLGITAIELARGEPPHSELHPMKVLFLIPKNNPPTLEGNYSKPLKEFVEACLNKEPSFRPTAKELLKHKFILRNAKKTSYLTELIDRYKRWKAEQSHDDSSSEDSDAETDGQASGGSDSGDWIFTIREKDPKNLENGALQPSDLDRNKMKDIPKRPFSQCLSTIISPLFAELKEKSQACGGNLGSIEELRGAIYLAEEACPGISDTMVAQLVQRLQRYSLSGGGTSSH

PHKG2 (human) = PHKG2 (human) (UniProt P15735)
Sequence of PHKG2 (human) (P15735 whole entry, looked up): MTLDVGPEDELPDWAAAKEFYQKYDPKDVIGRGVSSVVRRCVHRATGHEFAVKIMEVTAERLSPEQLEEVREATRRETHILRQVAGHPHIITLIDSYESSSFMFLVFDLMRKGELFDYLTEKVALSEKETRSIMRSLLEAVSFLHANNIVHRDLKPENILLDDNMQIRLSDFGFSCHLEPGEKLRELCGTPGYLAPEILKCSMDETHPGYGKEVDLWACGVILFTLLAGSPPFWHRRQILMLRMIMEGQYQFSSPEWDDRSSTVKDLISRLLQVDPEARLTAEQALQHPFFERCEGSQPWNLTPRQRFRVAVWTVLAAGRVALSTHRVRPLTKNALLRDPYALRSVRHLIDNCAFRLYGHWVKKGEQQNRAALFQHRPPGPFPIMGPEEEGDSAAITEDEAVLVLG

MAP3K12 (human) = MAP3K12 (human) (UniProt Q12852)
PRKX (human) = PRKX (human) (UniProt P51817)
RPS6KA1 KD2 (human) = RPS6KA1 KD2 (human) (UniProt Q15418)
MYLK3 (human) = MYLK3 (human) (UniProt Q32MK0)
STK10 (human) = STK10 (human) (UniProt O94804)
ABL1 (human) = ABL1 (human) (UniProt P00519)
Sequence of ABL1 (human) (P00519 whole entry, looked up): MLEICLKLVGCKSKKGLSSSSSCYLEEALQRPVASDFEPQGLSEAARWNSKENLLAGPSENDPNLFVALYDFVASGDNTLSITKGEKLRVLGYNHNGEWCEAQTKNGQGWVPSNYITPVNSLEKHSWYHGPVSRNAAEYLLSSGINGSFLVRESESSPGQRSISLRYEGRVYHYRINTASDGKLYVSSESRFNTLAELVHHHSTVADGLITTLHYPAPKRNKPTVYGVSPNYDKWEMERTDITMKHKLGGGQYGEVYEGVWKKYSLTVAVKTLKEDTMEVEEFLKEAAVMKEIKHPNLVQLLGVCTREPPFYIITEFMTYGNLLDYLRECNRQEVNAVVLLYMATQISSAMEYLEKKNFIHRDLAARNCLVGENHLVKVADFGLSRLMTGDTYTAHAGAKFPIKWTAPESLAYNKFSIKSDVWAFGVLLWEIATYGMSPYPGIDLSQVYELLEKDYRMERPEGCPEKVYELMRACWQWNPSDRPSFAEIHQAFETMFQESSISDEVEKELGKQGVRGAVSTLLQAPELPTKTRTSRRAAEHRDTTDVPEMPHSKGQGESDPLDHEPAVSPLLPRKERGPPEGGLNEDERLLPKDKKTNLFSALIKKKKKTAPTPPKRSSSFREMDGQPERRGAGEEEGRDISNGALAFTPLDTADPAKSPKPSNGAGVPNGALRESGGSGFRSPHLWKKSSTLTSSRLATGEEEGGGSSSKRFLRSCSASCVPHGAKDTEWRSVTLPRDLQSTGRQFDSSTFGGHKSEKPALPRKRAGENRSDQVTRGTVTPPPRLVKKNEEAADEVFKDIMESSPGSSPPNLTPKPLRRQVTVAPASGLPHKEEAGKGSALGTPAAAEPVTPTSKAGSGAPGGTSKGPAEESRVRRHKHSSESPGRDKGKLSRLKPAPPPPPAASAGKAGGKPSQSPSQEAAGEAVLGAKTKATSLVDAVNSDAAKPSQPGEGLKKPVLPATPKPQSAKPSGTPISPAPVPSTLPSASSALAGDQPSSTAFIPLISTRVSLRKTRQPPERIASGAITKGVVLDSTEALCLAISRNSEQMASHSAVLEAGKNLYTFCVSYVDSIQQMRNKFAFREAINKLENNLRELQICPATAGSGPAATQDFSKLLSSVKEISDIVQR

RPS6KA5 KD2 (human) = RPS6KA5 KD2 (human) (UniProt O75582)
[1] = tested on: BMX (human), P51813 [V600E]
Sequence of BMX (human), P51813 [V600E] (P51813 whole entry, looked up, stated change not applied): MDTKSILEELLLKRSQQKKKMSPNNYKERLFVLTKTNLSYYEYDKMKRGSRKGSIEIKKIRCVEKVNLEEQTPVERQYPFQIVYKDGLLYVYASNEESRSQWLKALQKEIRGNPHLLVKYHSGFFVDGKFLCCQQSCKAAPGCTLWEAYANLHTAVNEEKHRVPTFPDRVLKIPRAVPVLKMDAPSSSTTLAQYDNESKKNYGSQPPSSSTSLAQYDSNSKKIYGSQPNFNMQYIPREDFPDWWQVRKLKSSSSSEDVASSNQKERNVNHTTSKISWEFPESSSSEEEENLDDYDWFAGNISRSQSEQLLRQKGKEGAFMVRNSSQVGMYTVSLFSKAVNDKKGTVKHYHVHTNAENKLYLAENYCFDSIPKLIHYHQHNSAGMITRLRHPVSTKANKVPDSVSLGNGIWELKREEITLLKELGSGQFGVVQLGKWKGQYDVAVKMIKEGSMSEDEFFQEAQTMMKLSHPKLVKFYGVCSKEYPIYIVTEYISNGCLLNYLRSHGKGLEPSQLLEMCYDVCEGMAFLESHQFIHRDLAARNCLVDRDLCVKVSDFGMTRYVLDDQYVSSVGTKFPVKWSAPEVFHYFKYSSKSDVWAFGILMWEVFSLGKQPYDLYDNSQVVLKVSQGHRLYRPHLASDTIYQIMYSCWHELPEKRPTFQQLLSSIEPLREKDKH

CDKL2 (human) = CDKL2 (human) (UniProt Q92772)
LATS1 (human) = LATS1 (human) (UniProt O95835)
Sequence of LATS1 (human) (O95835 whole entry, looked up): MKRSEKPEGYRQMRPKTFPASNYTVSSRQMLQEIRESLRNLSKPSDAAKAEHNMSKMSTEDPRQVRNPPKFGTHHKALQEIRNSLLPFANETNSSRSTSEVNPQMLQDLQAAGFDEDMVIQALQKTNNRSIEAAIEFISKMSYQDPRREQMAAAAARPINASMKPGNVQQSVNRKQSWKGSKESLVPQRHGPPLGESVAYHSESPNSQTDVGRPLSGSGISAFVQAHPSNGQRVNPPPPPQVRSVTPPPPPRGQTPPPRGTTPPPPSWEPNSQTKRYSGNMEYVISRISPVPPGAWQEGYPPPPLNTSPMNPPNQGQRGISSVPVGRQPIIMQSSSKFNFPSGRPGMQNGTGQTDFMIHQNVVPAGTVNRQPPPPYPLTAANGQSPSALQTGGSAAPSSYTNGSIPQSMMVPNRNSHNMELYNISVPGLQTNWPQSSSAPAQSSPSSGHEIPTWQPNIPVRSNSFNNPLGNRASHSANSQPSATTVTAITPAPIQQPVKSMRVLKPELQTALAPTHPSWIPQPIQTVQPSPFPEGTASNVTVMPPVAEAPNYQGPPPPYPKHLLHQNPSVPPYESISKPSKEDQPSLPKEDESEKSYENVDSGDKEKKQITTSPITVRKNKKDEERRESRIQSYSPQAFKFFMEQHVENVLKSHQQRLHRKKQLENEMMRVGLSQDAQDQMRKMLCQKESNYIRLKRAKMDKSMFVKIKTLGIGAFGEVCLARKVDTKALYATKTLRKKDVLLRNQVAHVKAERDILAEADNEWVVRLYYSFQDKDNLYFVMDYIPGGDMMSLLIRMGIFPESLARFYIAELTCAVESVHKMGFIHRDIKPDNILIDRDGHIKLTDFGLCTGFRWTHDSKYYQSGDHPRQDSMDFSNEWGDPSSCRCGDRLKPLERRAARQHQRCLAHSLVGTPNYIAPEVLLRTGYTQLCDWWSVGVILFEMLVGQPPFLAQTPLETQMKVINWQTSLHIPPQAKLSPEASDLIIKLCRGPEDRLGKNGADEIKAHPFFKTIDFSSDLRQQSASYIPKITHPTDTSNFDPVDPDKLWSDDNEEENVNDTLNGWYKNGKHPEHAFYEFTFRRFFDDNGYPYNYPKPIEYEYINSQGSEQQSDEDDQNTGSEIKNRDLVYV

[2] = tested on: RET (human), P07949 [V804L]
PIM3 (human) = PIM3 (human) (UniProt Q86V86)
BMPR1B (human) = BMPR1B (human) (UniProt O00238)
CaMK1 (human) = CaMK1 (human) (UniProt Q14012)
MET (human) = MET (human) (UniProt P08581)
TIE1 (human) = TIE1 (human) (UniProt P35590)
MKNK1 (human) = MKNK1 (human) (UniProt Q9BUB5)
Sequence of MKNK1 (human) (Q9BUB5 whole entry, looked up): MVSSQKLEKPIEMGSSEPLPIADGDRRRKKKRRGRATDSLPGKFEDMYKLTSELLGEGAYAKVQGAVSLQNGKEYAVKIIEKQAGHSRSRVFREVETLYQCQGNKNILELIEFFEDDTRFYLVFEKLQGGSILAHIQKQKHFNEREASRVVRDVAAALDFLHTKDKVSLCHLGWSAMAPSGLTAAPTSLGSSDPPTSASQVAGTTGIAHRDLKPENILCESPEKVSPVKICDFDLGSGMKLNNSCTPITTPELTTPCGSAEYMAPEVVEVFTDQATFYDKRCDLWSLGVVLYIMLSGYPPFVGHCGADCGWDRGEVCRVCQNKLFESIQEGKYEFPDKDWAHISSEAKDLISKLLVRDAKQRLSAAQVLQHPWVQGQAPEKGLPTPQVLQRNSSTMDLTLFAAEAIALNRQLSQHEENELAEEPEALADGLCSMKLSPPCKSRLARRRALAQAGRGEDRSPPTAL

RPS6KA2 KD1 (human) = RPS6KA2 KD1 (human) (UniProt Q15349)
MAK (human) = MAK (human) (UniProt P20794)
PKN3 (M.tuberculosis) = PKN3 (M.tuberculosis) (UniProt Q6P5Z2)
GRK7 (human) = GRK7 (human) (UniProt Q8WTQ7)
MAP3K1 (human) = MAP3K1 (human) (UniProt Q13233)
STK39 (human) = STK39 (human) (UniProt Q9UEW8)
IRAK4 (human) = IRAK4 (human) (UniProt Q9NWZ3)
[3] = tested on: LRRK2 (human), Q5S007 [G2019S]
BRAF (human) = BRAF (human) (UniProt P15056)
SGK3 (human) = SGK3 (human) (UniProt Q96BR1)
PIP5K1C (human) = PIP5K1C (human) (UniProt O60331)
CSNK1A1 (human) = CSNK1A1 (human) (UniProt P48729)

Sequence of CLK4 (human) (Q9HAZ1 whole entry, looked up): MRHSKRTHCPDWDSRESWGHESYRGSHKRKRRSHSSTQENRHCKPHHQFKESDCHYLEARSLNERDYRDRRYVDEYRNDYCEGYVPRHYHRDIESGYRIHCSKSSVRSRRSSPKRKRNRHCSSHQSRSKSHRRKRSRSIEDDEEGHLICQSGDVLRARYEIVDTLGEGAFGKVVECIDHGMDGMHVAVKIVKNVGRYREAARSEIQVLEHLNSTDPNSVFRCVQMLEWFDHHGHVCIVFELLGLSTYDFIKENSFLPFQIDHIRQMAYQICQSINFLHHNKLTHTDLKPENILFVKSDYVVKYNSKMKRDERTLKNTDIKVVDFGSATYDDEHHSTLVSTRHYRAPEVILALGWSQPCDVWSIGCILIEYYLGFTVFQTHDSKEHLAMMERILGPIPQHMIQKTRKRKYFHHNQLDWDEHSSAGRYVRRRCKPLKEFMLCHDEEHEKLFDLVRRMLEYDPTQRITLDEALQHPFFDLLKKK

Structure (SMILES): COc1cc(C)c(Sc2cnc(NC(=O)c3ccc(CNC(C)C(C)C)cc3)s2)cc1C(=O)N1CCN(C(C)=O)CC1 (configuration not stated)
- kinase still bound, per cent of control (CDC2L2 (human)): 100%
- kinase still bound, per cent of control (PDPK1 (human)): 100%
- kinase still bound, per cent of control (CLK4 (human)): 33%
- kinase still bound, per cent of control (EPHA6 (human)): 11%
- kinase still bound, per cent of control (CDK2 (human)): 100%
- kinase still bound, per cent of control (RPS6KA1 KD1 (human)): 100%
- kinase still bound, per cent of control (STK24 (human)): 33%
- kinase still bound, per cent of control (PHKG2 (human)): 11%
- kinase still bound, per cent of control (MAP3K12 (human)): 30%
- kinase still bound, per cent of control (PRKX (human)): 100%
- kinase still bound, per cent of control (RPS6KA1 KD2 (human)): 100%
- kinase still bound, per cent of control (MYLK3 (human)): 100%
- kinase still bound, per cent of control (STK10 (human)): 13%
- kinase still bound, per cent of control (ABL1 (human)): 100%
- kinase still bound, per cent of control (RPS6KA5 KD2 (human)): 100%
- kinase still bound, per cent of control [1]: 100%
- kinase still bound, per cent of control (CDKL2 (human)): 100%
- kinase still bound, per cent of control (LATS1 (human)): 100%
- kinase still bound, per cent of control [2]: 100%
- kinase still bound, per cent of control (PIM3 (human)): 100%
- kinase still bound, per cent of control (BMPR1B (human)): 100%
- kinase still bound, per cent of control (CaMK1 (human)): 100%
- kinase still bound, per cent of control (MET (human)): 29%
- kinase still bound, per cent of control (TIE1 (human)): 11%
- kinase still bound, per cent of control (MKNK1 (human)): 100%
- kinase still bound, per cent of control (RPS6KA2 KD1 (human)): 100%

Structure (SMILES): COc1ccc(N(C(=O)Oc2cc(C(=O)Nc3cccc(C(F)(F)F)c3)ccc2C)c2ccnc(Nc3ccc(N4CCN(C)CC4)cc3)n2)c(OC)c1
- kinase still bound, per cent of control (CDC2L2 (human)): 8%
- kinase still bound, per cent of control (PDPK1 (human)): 100%
- kinase still bound, per cent of control (CLK4 (human)): 100%
- kinase still bound, per cent of control (EPHA6 (human)): 0.35%
- kinase still bound, per cent of control (CDK2 (human)): 100%
- kinase still bound, per cent of control (RPS6KA1 KD1 (human)): 100%
- kinase still bound, per cent of control (STK24 (human)): 100%
- kinase still bound, per cent of control (PHKG2 (human)): 100%
- kinase still bound, per cent of control (MAP3K12 (human)): 100%
- kinase still bound, per cent of control (PRKX (human)): 100%
- kinase still bound, per cent of control (RPS6KA1 KD2 (human)): 100%
- kinase still bound, per cent of control (MYLK3 (human)): 100%
- kinase still bound, per cent of control (STK10 (human)): 0%
- kinase still bound, per cent of control (ABL1 (human)): 2%
- kinase still bound, per cent of control (RPS6KA5 KD2 (human)): 100%
- kinase still bound, per cent of control [1]: 9.7%
- kinase still bound, per cent of control (LATS1 (human)): 100%
- kinase still bound, per cent of control (PIM3 (human)): 100%
- kinase still bound, per cent of control (BMPR1B (human)): 100%
- kinase still bound, per cent of control (CaMK1 (human)): 100%
- kinase still bound, per cent of control (MET (human)): 100%
- kinase still bound, per cent of control (TIE1 (human)): 3.8%
- kinase still bound, per cent of control (MKNK1 (human)): 100%
- kinase still bound, per cent of control (RPS6KA2 KD1 (human)): 100%

Structure (SMILES): CCCS(=O)(=O)Nc1ccc(F)c(C(=O)c2c[nH]c3ncc(Cl)cc23)c1F
- kinase still bound, per cent of control (CDC2L2 (human)): 95%
- kinase still bound, per cent of control (PDPK1 (human)): 85%
- kinase still bound, per cent of control (MAK (human)): 71%
- kinase still bound, per cent of control (CLK4 (human)): 51%
- kinase still bound, per cent of control (EPHA6 (human)): 100%
- kinase still bound, per cent of control (CDK2 (human)): 78%
- kinase still bound, per cent of control (RPS6KA1 KD1 (human)): 71%
- kinase still bound, per cent of control (PKN3 (M.tuberculosis)): 46%
- kinase still bound, per cent of control (GRK7 (human)): 76%
- kinase still bound, per cent of control (STK24 (human)): 77%
- kinase still bound, per cent of control (PHKG2 (human)): 52%
- kinase still bound, per cent of control (MAP3K1 (human)): 73%
- kinase still bound, per cent of control (MAP3K12 (human)): 52%
- kinase still bound, per cent of control (PRKX (human)): 100%
- kinase still bound, per cent of control (RPS6KA1 KD2 (human)): 75%
- kinase still bound, per cent of control (MYLK3 (human)): 41%
- kinase still bound, per cent of control (STK39 (human)): 100%
- kinase still bound, per cent of control (STK10 (human)): 68%
- kinase still bound, per cent of control (IRAK4 (human)): 86%
- kinase still bound, per cent of control (RPS6KA5 KD2 (human)): 86%
- kinase still bound, per cent of control [1]: 0%
- kinase still bound, per cent of control (CDKL2 (human)): 49%
- kinase still bound, per cent of control (LATS1 (human)): 86%
- kinase still bound, per cent of control [3]: 38%
- kinase still bound, per cent of control [2]: 96%
- kinase still bound, per cent of control (BRAF (human)): 0%
- kinase still bound, per cent of control (PIM3 (human)): 65%
- kinase still bound, per cent of control (BMPR1B (human)): 74%
- kinase still bound, per cent of control (MET (human)): 77%
- kinase still bound, per cent of control (TIE1 (human)): 61%
- kinase still bound, per cent of control (MKNK1 (human)): 100%
- kinase still bound, per cent of control (SGK3 (human)): 49%
- kinase still bound, per cent of control (PIP5K1C (human)): 79%
- kinase still bound, per cent of control (CSNK1A1 (human)): 84%
- kinase still bound, per cent of control (RPS6KA2 KD1 (human)): 67%

Structure (SMILES): COc1cc(N2CCC(C(N)=O)CC2)ccc1Nc1nc(N)c(Cl)c(Nc2ccccc2S(=O)(=O)C(C)C)n1
- kinase still bound, per cent of control (CDC2L2 (human)): 100%
- kinase still bound, per cent of control (PDPK1 (human)): 100%
- kinase still bound, per cent of control (CLK4 (human)): 5.5%
- kinase still bound, per cent of control (EPHA6 (human)): 100%
- kinase still bound, per cent of control (CDK2 (human)): 100%
- kinase still bound, per cent of control (RPS6KA1 KD1 (human)): 100%
- kinase still bound, per cent of control (STK24 (human)): 100%
- kinase still bound, per cent of control (PHKG2 (human)): 13%
- kinase still bound, per cent of control (MAP3K12 (human)): 100%
- kinase still bound, per cent of control (PRKX (human)): 100%
- kinase still bound, per cent of control (RPS6KA1 KD2 (human)): 30%
- kinase still bound, per cent of control (MYLK3 (human)): 100%
- kinase still bound, per cent of control (STK10 (human)): 100%
- kinase still bound, per cent of control (ABL1 (human)): 100%
- kinase still bound, per cent of control (RPS6KA5 KD2 (human)): 100%
- kinase still bound, per cent of control [1]: 100%
- kinase still bound, per cent of control (CDKL2 (human)): 100%
- kinase still bound, per cent of control (LATS1 (human)): 100%
- kinase still bound, per cent of control [2]: 100%
- kinase still bound, per cent of control (PIM3 (human)): 100%
- kinase still bound, per cent of control (BMPR1B (human)): 100%
- kinase still bound, per cent of control (CaMK1 (human)): 100%
- kinase still bound, per cent of control (MET (human)): 100%
- kinase still bound, per cent of control (TIE1 (human)): 29%
- kinase still bound, per cent of control (MKNK1 (human)): 100%
- kinase still bound, per cent of control (RPS6KA2 KD1 (human)): 100%

Structure (SMILES): N#C/C(=C1/Nc2ccccc2S1)c1ccnc(NCCc2cccnc2)n1
- kinase still bound, per cent of control (CDC2L2 (human)): 85%
- kinase still bound, per cent of control (PDPK1 (human)): 100%
- kinase still bound, per cent of control (MAK (human)): 100%
- kinase still bound, per cent of control (CLK4 (human)): 29%
- kinase still bound, per cent of control (EPHA6 (human)): 99%
- kinase still bound, per cent of control (CDK2 (human)): 90%
- kinase still bound, per cent of control (RPS6KA1 KD1 (human)): 83%
- kinase still bound, per cent of control (PKN3 (M.tuberculosis)): 4.6%
- kinase still bound, per cent of control (GRK7 (human)): 47%
- kinase still bound, per cent of control (STK24 (human)): 80%
- kinase still bound, per cent of control (PHKG2 (human)): 78%
- kinase still bound, per cent of control (MAP3K1 (human)): 65%
- kinase still bound, per cent of control (MAP3K12 (human)): 81%
- kinase still bound, per cent of control (PRKX (human)): 81%
- kinase still bound, per cent of control (RPS6KA1 KD2 (human)): 27%
- kinase still bound, per cent of control (MYLK3 (human)): 100%
- kinase still bound, per cent of control (STK39 (human)): 100%
- kinase still bound, per cent of control (STK10 (human)): 100%
- kinase still bound, per cent of control (IRAK4 (human)): 48%
- kinase still bound, per cent of control (RPS6KA5 KD2 (human)): 72%
- kinase still bound, per cent of control [1]: 6.8%
- kinase still bound, per cent of control (CDKL2 (human)): 98%
- kinase still bound, per cent of control (LATS1 (human)): 100%
- kinase still bound, per cent of control [3]: 74%
- kinase still bound, per cent of control [2]: 100%
- kinase still bound, per cent of control (BRAF (human)): 14%
- kinase still bound, per cent of control (PIM3 (human)): 2.3%
- kinase still bound, per cent of control (BMPR1B (human)): 18%
- kinase still bound, per cent of control (CaMK1 (human)): 73%
- kinase still bound, per cent of control (MET (human)): 98%
- kinase still bound, per cent of control (TIE1 (human)): 100%
- kinase still bound, per cent of control (MKNK1 (human)): 97%
- kinase still bound, per cent of control (SGK3 (human)): 100%
- kinase still bound, per cent of control (PIP5K1C (human)): 8.2%
- kinase still bound, per cent of control (CSNK1A1 (human)): 9.8%
- kinase still bound, per cent of control (RPS6KA2 KD1 (human)): 100%
